Experiment [1] concerns phospholipase A2 derived from perfused guinea pig lung. To be noted: enzyme derived from perfused guinea pig lung; cited from earlier work.
For experiment [2], the target named is SNAKE VENOM PHOSPHOLIPASE A2. The experiment can be described thus: coupled phospholipase A2 / soybean lipoxygenase oxygen consumption assay, snake venom enzyme. Format: biochemical. To be noted: estimated I50 calculated from a partial inhibition value, pH 8.5, 37° C.
The next experiment concerns UV induced erythema. The experiment can be described thus: UV induced erythema on the skin of guinea pigs. In kind it is in vivo, guinea pig. To be noted: for erythema score, 1 hour / erythema score, 2 hours / erythema score, 3 hours / erythema score, 4 hours / erythema score, 24 hours: aggregate score for 3 animals; for erythema score, (After 4 hours) Total Points / erythema score, (After 24 hours) Total Points: aggregate for 3 animals. Here is the method:
Some of the compounds of this invention were tested in vivo for their ability to inhibit the effects of UV induced erythema on the skin of guinea pigs. This is an example of an inflammatory process fulfilling the four pathological requirements of "rubor, calor, dolor, and tumor" i.e., reddening, heat, pain, and edematious swelling in the skin. Administration of the compounds of this invention to guinea pigs whose skin was subsequently exposed to ultraviolet light markedly retarded and in some cases eliminated altogether this inflammatory process. Administration of the compounds of this invention was performed both interparenterally and subcutaneously with equivalent results, thereby eliminating any possiblity of reduction in erthyma due to the so called "counter irritant" effect on the serosal soft surface of the gut.
The test was carried out as follows: Guinea pigs of the Hartley strain ranging in weight from 250 to 750 gm. were clipped with coarse and fine clippers to remove as much hair as possible from the back or abdomen. They were then treated with a commercial depilatory for six to seven min. after which they were washed with warm water. The animals were then injected I.P. or subcutaneously with solutions or suspensions of the test compounds made up at 0.02 molar concentrations. The dose was 0.3 ml. per 100 gm. of body weight. A control (untreated) group was also maintained. The animals were then held for 30 min. before being exposed as rapidly as possible to ultra-violet light using a Kromayer lamp for 30 sec. A scoring system was developed to quantitate the erythema. The scoring was from 0 to 5 and is described as follows:
0=no apparent reddening of the skin
0.5=some slight reddening, without a definite border
1.0=a discrete pink circle with a definite border
2.0=a discrete circle of redness with a definite border more intense than 1.0
3.0=same circle with still greater intensity
4.0=same circle with a near maximal response but without any raising of the erythematous spot above the level of the surrounding skin
5.0=a raised edematous circle with the redness at maximal intensity
The animals were scored at hourly intervals for the first four hours. The erythema reached a maximum at this time in the control animals. The major difference between results at 4 hr. and those at 24 is the developement of edema and this occurred in some of the animals treated with phospholipase inhibitors without erythema being present. The results of this test are shown in tabular form in Tables VI and VII. The aggregate scores of the animals treated with the designated compounds are recorded at hourly intervals and compared with the control (untreated) scores. As shown by the tables, the method of this invention markedly retarded UV-induced erythema.

Experiment [3] addresses T1, HOG PANCREAS PHOSPHOLIPASE A2 (Sus scrofa, UniProt P00592).
T1 construct: from tissue; host or cells: hog pancreas
Description: coupled phospholipase A2 / soybean lipoxygenase oxygen consumption assay, hog pancreas enzyme. In kind it is biochemical. To be noted: estimated I50 calculated from a partial inhibition value, pH 8.5, 37° C.

For experiment [4], the target named is phospholipase A2 from venom of Crotalus Adamanteus (Crotalus adamanteus, UniProt P00623). To be noted: enzyme from Crotalus Adamanteus venom; cited from earlier work.
Experiment [5] concerns the target phospholipase A2 from venom of bee (Apis mellifera, UniProt P00630). To be noted: enzyme from bee venom; cited from earlier work.
Experiment [6] has as its system phospholipase A2 of rabbit polymorphonuclear leukocytes. To be noted: cited from earlier work.
The target in experiment [7] is T2, phospholipase A2 from pig pancreas (Sus scrofa, UniProt P00592).
T2 construct: host or cells: pig pancreas
To be noted: enzyme from pig pancreas; cited from earlier work.

Experiment [8] concerns the target T3, HUMAN PLATELET PHOSPHOLIPASE A2 (Homo sapiens, UniProt P47712).
T3 construct: Human blood was drawn from an antecubital vein into 3.8% sodium citrate; endogenous in cells; host or cells: human platelets in citrated plasma (PRP)
T3 sequence (P47712 1-749): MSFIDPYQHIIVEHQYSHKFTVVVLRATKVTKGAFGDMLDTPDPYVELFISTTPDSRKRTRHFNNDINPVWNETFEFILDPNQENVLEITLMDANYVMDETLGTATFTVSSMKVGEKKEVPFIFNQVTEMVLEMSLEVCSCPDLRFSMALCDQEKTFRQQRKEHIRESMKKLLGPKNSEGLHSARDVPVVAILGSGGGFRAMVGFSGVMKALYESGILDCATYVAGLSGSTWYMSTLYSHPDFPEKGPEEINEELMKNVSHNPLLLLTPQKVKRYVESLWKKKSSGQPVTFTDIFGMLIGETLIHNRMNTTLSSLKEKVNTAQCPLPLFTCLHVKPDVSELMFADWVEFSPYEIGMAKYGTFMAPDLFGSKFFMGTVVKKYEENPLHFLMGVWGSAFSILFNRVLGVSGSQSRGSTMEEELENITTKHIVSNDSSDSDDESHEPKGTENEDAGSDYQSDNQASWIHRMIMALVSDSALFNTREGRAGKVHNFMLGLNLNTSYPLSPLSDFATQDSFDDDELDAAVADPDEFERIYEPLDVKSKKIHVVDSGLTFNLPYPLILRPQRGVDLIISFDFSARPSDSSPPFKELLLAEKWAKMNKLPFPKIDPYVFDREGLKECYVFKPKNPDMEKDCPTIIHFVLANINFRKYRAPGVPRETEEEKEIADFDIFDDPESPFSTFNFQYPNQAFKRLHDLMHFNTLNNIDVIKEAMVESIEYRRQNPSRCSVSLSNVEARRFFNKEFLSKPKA
The experiment can be described thus: inhibition of collagen-induced aggregation of human platelets. In kind it is cell-based. To be noted: human platelet rich plasma, read-out: I50 collagen (converted). As for the experimental part: The compounds of the present invention were tested for their ability to inhibit collagen-induced aggregation of platelets at 100 μg. per ml. or less. The compounds that were active against collagen-induced aggregation were tested at the I50 dose against arachidonic acid-induced aggregation. Compounds that inhibited collagen-induced aggregation, but not arachidonic acid-induced aggregation, were reported as active phospholipase A2 inhibitors.
The test was run as follows. Human blood was drawn from an antecubital vein into 3.8% sodium citrate with the final citrate concentration being 0.38%. The blood was transferred to plastic centrifuge tubes and centrifuged at 200×g for 10 min. This yielded […] (PRP). This PRP was allowed to stand for 30 min. for testing at which point it was tested against 400 μg. per ml. of arachidonic acid. […] If the platelets aggregated to arachidonic acid, a dose of collagen that gave a substantial irreversible aggregation (approximately 60-80% transmission) was established. It was then attempted to block the response of collagen with 10 μg. per ml. of indomethacin. […] The ID50 for all unknown compounds was then established. Most of the compounds were tested at rather high concentrations and it was often necessary to place the compound in ethanol into the aggregation cuvet and evaporate the ethanol before testing.
Those that were reported as active were tested at the ID50 dose against 400 μg per ml. of arachidonic acid. […] The compounds are shown to inhibit phospholipase A2 from humans at low dosages.

In experiment [9] the target is BEE VENOM PHOSPHOLIPASE A2 (Apis mellifera, UniProt P00630). The experiment can be described thus: biochemical. To be noted: pH 8.5, 37° C.
A further experiment has as its target phospholipase A2 (Naja naja, UniProt P15445). To be noted: cited from earlier work.
[10] abbreviates: subcutaneous, 60.9-66.1 mg/kg given 30 min. before UV, control 17.
The mark [11] stands for this setting: subcutaneous, 60.9-66.1 mg/kg given 30 min. before UV, control 23.
Where [12] appears, read: subcutaneous, 60.9-66.1 mg/kg given 30 min. before UV, control 29.
Where [13] appears, read: subcutaneous, 60.9-66.1 mg/kg given 30 min. before UV, control 34.
Setting [14] is: subcutaneous, 60.9-66.1 mg/kg given 30 min. before UV, control 56.
The mark [15] stands for this setting: subcutaneous, 60.9-66.1 mg/kg, control 103.
Where [16] appears, read: subcutaneous, 60.9-66.1 mg/kg, control 158.

The structures appear in SMILES notation. Structures can show the parent of a compound that is named as a salt.

T1 sequence (P00592 23-146): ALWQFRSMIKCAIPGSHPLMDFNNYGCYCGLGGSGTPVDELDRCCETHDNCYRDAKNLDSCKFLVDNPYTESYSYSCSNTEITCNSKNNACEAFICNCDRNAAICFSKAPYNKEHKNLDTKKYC
phospholipase A2, sequence (P15445 whole entry, looked up): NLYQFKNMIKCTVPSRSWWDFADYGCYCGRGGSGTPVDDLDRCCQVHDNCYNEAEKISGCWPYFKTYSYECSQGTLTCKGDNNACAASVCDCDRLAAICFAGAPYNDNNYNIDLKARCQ
phospholipase A2 from venom of Crotalus Adamanteus, sequence (P00623 17-138 limits assumed): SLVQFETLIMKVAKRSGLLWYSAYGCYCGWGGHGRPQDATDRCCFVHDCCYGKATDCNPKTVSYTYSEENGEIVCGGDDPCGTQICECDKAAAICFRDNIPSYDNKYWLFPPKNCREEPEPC
T2 sequence (P00592 23-146): as the sequence (P00592 23-146) above
UniProt P00630, sequence (P00630 34-167 limits assumed): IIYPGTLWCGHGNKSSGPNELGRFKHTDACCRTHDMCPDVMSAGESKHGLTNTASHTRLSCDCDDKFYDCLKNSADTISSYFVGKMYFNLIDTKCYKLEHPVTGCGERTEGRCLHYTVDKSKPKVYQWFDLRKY
phospholipase A2 from venom of bee, sequence (P00630 34-167 limits assumed): as above

`CCN(CC)CCCC(C)Nc1c2ccc(Cl)cc2nc2ccc(OC)cc12` (stereo not drawn) [mepacrine]: the “inhibition of phospholipase A2” value in experiment [1] is “inhibits the activity of phospholipase A2”.
`O=C(CCCN[C@H]1CC[C@](CO)(c2ccccc2)CC1)c1ccc(F)cc1` [I, Butyropehnone, 4'-fluoro-4-[[4-(hydroxymethyl)-4-phenylcyclohexyl]amino]- cis-, hydrochloride]: the IC50 in experiment [2] is 221 µM; in experiment [3] it was 24.3 µM. Also, the “erythema score, 1 hour” value in the experiment with UV induced erythema (setting [10]) came to 2. In addition, in the experiment on UV induced erythema (setting [11]), the “erythema score, 2 hours” value was 4. For the same compound, the “erythema score, 3 hours” value in the experiment on UV induced erythema (setting [12]) is recorded as 6. Further, the “erythema score, 4 hours” value in the experiment on UV induced erythema (setting [13]) came out at 7. Further, the “erythema score, 24 hours” value in the experiment with UV induced erythema (setting [14]) is on record as 40. The “erythema score, (After 4 hours) Total Points” value in the experiment on UV induced erythema (setting [15]) is listed as 18. In the experiment on UV induced erythema (setting [16]), the “erythema score, (After 24 hours) Total Points” value is 58.
`COc1ccc2c(c1)c(CC(=O)O)c(C)n2C(=O)c1ccc(Cl)cc1` [indomethacin, Indomethacin]: the “inhibition of phospholipase A2” value in [4] is “inactive”; in experiment [5], “inactive”; in [6], “inhibit phospholipase A2 of rabbit polymorphonuclear leukocytes in dose dependent fashion”; in experiment [7] it was “inactive”.
With `CO[C@]1(c2ccccc2C)CC[C@@H](NCCCC(=O)c2ccc(F)cc2)CC1` [C, Butyrophenone, 4'-fluoro-4-[(t-4-methoxy-4-o-tolylcyclohexyl)-amino]-, hydrochloride], the IC50 is 301 µM in [2], 196 µM in experiment [8], 404 µM in [9] and 11.8 µM in [3]. The “erythema score, 1 hour” value in the experiment with UV induced erythema (intraperitoneal, 23-25.2 mg/kg given 30 min. before UV, control 12) amounted to 8; with UV induced erythema (setting [10]), 10. In addition, the “erythema score, 2 hours” value with UV induced erythema (intraperitoneal, 23-25.2 mg/kg given 30 min. before UV, control 18) was 13; in the experiment with UV induced erythema (setting [11]), 11. Besides, the “erythema score, 3 hours” value turned out to be 12 in the experiment with UV induced erythema (intraperitoneal, 23-25.2 mg/kg given 30 min. before UV, control 24) and 9 in the experiment on UV induced erythema (setting [12]). In addition, the “erythema score, 4 hours” value with UV induced erythema (intraperitoneal, 23-25.2 mg/kg given 30 min. before UV, control 30) is on record as 12; with UV induced erythema (setting [13]) it was 10. Also, the “erythema score, 24 hours” value is given as 27 in the experiment on UV induced erythema (intraperitoneal, 23-25.2 mg/kg given 30 min. before UV, control 50) and 40 in the experiment with UV induced erythema (setting [14]). The “erythema score, (After 4 hours) Total Points” value in the experiment on UV induced erythema (intraperitoneal, 23-25.2 mg/kg, control 78) was 45; in the experiment with UV induced erythema (setting [15]), 39. The “erythema score, (After 24 hours) Total Points” value with UV induced erythema (intraperitoneal, 23-25.2 mg/kg, control 128) worked out at 72; in the experiment with UV induced erythema (setting [16]) it was 79.
`O=C(CBr)c1ccc(Br)cc1` [Bromphenacyl bromide]: the “inhibition of phospholipase A2” value at phospholipase A2 is given as “inhibit phospholipase A2 by acylating a histadine residue”.

Source of the values: patent publication US4239780A, “Phospholipase A2 inhibition” (The Upjohn Company, priority 1979, dated 1980).
